Tests used:
human DLK [1] = biological target: T1, human DLK (Homo sapiens (Human), UniProt Q12852); assay: cell-based; settings: Table 2b (global); additional assay runs on multiple batches, includes Table 2a data in the averaging; p-cJun (Ser63), HEK293; read-out: Cell IC50
Experimental: HEK293 cells stably transfected with a Dox-inducible human DLK were plated into a 384-well plate in 20 μl (40,000 cells/well) of DMEM medium (without phenol red) containing 10% fetal bovine serum, 1.5 μg/ml doxycycline and 1 μg/ml puromycin. The cells as negative control were grown in the absence of doxycycline. The plate was incubated at 37° C., 5% CO2 for 20 h, before DMSO (control) or compounds diluted in medium were added. The cells were incubated at 37° C. for an additional 5 h, followed by lysis and the addition detection antibodies from p-cJun (Ser63) cellular assay kit (Cisbio) per manufacturer protocol. The standard dose response curves were fitted by Genedata Screener software using the variable-slope model: Signal=Signalnegative control+(SignalDMSO control−Signalnegative control)/(1+(IC50/Dose)^Hill slope). Only signal and dose in the equation were treated as known values.

human DLK [2] = biological target: T1, human DLK; assay: biochemical; type: binding; settings: Table 2b DLK activity (global); read-out: Kd
Experimental: The DLK dissociation constants (Kd) have been determined in the KINOMEscan KdELECT Service at DiscoveRx.
A fusion protein of full length of human DLK (amino acids 1-859) and the DNA binding domain of NFkB was expressed in transiently transfected HEK293 cells. From these HEK 293 cells, extracts were prepared in M-PER extraction buffer (Pierce) in the presence of Protease Inhibitor Cocktail Complete (Roche) and Phosphatase Inhibitor Cocktail Set II (Merck) per manufacturers' instructions. The DLK fusion protein was labeled with a chimeric double-stranded DNA tag containing the NFkB binding site (5′-[sequence]-3′) fused to an amplicon for qPCR readout, which was added directly to the expression extract (the final concentration of DNA-tag in the binding reaction is 0.1 nM).
The liganded beads were blocked with excess biotin and washed with blocking buffer (SeaBlock (Pierce), 1% BSA, 0.05% Tween 20, 1 mM DTT) to remove unbound ligand and to reduce nonspecific binding.
Extracts were used directly in binding assays without any enzyme purification steps at a ≥10,000-fold overall stock dilution (final DNA-tagged enzyme concentration <0.1 nM). Extracts were loaded with DNA-tag and diluted into the binding reaction in a two step process. First extracts were diluted 1:100 in 1× binding buffer (PBS/0.05% Tween 20/10 mM DTT/0.1% BSA/2 μg/ml sonicated salmon sperm DNA) containing 10 nM DNA-tag. This dilution was allowed to equilibrate at room temperature for 15 minutes and then subsequently diluted 1:100 in 1× binding buffer. Test compounds were prepared as 111× stocks in 100% DMSO. Kds were determined using an 11-point 3-fold compound dilution series with three DMSO control points. […] The compounds were then diluted directly into the assays such that the final concentration of DMSO was 0.9%. All reactions performed in polypropylene 384-well plates. Each was a final volume of 0.02 mL. Assays were incubated with shaking for 1 hour at room temperature. Then the beads were pelleted and washed with wash buffer (1×PBS, 0.05% Tween 20) to remove displaced kinase and test compound. […] The kinase concentration in the eluates was measured by qPCR. qPCR reactions were assembled by adding 2.5 μL of kinase eluate to 7.5 μL of qPCR master mix containing 0.15 μM amplicon primers and 0.15 μM amplicon probe. The qPCR protocol consisted of a 10 minute hot start at 95° C., followed by 35 cycles of 95° C. for 15 seconds, 60° C. for 1 minute.
Test compounds were prepared as 11× stocks in 100% DMSO. Kds were determined using an 11-point 3-fold compound dilution series with three DMSO control points. […] The compounds were then diluted directly into the assays such that the final concentration of DMSO was 0.9%. The Kds were determined using a compound top concentration of 30,000 nM. Kd measurements were performed in duplicate.
Binding constants (Kds) were calculated with a standard dose-response curve using the Hill equation:
The Hill Slope was set to −1.

Row | Structure (SMILES) | IC50 (human DLK [1]) [nM] | Kd (human DLK [2]) [nM]
1 | C[C@H](O)c1nc(-c2cnc(N)c(C(F)(F)F)c2)cn1C12CC(C1)C2 [Example 33, (S)-1-(4-(6-amino-5-(trifluoromethyl)pyridin-3-yl)-1-(bicyclo[1.1.1]pentan-1-yl)-1H-imidazol-2-yl)ethan-1-ol] | 207 | 9.7
2 | Nc1ncc(-c2cn(C34CC(N5CCOCC5)(C3)C4)c(CC3CC3)n2)cc1OC(F)F [Example 36, 5-(2-(cyclopropylmethyl)-1-(3-morpholinobicyclo[1.1.1]pentan-1-yl)-1H-imidazol-4-yl)-3-(difluoromethoxy)pyridin-2-amine] | 500 | 22
3 | Nc1ncc(-c2cn(C34CC(N5CCOCC5)(C3)C4)c(C3CC3)n2)cc1OC(F)F [Example 37, 5-(2-cyclopropyl-1-(3-morpholinobicyclo[1.1.1]pentan-1-yl)-1H-imidazol-4-yl)-3-(difluoromethoxy)pyridin-2-amine] | 351 | 19
4 | CC(C)c1nc(-c2cnc(N)c(OC(F)F)c2)cn1C12CC(N3CCOCC3)(C1)C2 [Example 38, 3-(difluoromethoxy)-5-(2-isopropyl-1-(3-morpholinobicyclo[1.1.1]pentan-1-yl)-1H-imidazol-4-yl)pyridin-2-amine] | 709 | 19
5 | CC(C)(C)Cc1nc(-c2cnc(N)c(OC(F)(F)F)c2)cn1C12CC(N3CCOCC3)(C1)C2 [Example 39, 5-(1-(3-morpholinobicyclo[1.1.1]pentan-1-yl)-2-neopentyl-1H-imidazol-4-yl)-3-(trifluoromethoxy)pyridin-2-amine] | 4040 | 210
6 | CC(C)(C)Cc1nc(-c2cnc(N)c(C(F)(F)F)c2)cn1C12CC(N3CCOCC3)(C1)C2 [Example 40, 5-(1-(3-morpholinobicyclo[1.1.1]pentan-1-yl)-2-neopentyl-1H-imidazol-4-yl)-3-(trifluoromethyl)pyridin-2-amine] | 2460 | 66
7 | Nc1ncc(-c2cn(C34CC(N5CCOCC5)(C3)C4)c(C3CCC3)n2)cc1OC(F)(F)F [Example 43, 5-(2-cyclobutyl-1-(3-morpholinobicyclo[1.1.1]pentan-1-yl)-1H-imidazol-4-yl)-3-(trifluoromethoxy)pyridin-2-amine] | 598 | 32
8 | Nc1ncc(-c2cn(C34CC(N5CCOCC5)(C3)C4)c(C3CCCC3)n2)cc1OC(F)(F)F [Example 44, 5-(2-cyclopentyl-1-(3-morpholinobicyclo[1.1.1]pentan-1-yl)-1H-imidazol-4-yl)-3-(trifluoromethoxy)pyridin-2-amine] | 841 | 53
9 | CC(C)Cc1nc(-c2cnc(N)c(OC(F)(F)F)c2)cn1C12CC(N3CCOCC3)(C1)C2 [Example 45, 5-(2-isobutyl-1-(3-morpholinobicyclo[1.1.1]pentan-1-yl)-1H-imidazol-4-yl)-3-(trifluoromethoxy)pyridin-2-amine] | 761 | 15
10 | CC(C)Cc1nc(-c2cnc(N)c(C(F)(F)F)c2)cn1C12CC(N3CCOCC3)(C1)C2 [Example 47, 5-(2-isobutyl-1-(3-morpholinobicyclo[1.1.1]pentan-1-yl)-1H-imidazol-4-yl)-3-(trifluoromethyl)pyridin-2-amine] | 655 | 6
11 | Nc1ncc(-c2cn(C34CC(N5CCOCC5)(C3)C4)c(CC(F)(F)F)n2)cc1OC(F)(F)F [Example 48, 5-(1-(3-morpholinobicyclo[1.1.1]pentan-1-yl)-2-(2,2,2-trifluoroethyl)-1H-imidazol-4-yl)-3-(trifluoromethoxy)pyridin-2-amine] | 413 | 13
12 | CCC(C)c1nc(-c2cnc(N)c(OC(F)(F)F)c2)cn1C12CC(N3CCOCC3)(C1)C2 (stereo not drawn) [Example 49, 5-(2-(sec-butyl)-1-(3-morpholinobicyclo[1.1.1]pentan-1-yl)-1H-imidazol-4-yl)-3-(trifluoromethoxy)pyridin-2-amine] | 290 | 8.6

From patent US10093664B2, “Bicyclo[1.1.1]pentane inhibitors of dual leucine zipper (DLK) kinase for the treatment of disease” (priority 2016, dated 2018)
